Values of other authors in patent US8540972B2, “Sunscreen product comprising hydroxyapatite as physical filter” (Kalichem Italia S.R.L., priority 2009, dated 2013).

System: HeLa cells

titanium dioxide [TiO2]
fate of HeLa cells after UV irradiation in the presence of the substance: die
